Test results from ChEMBL document CHEMBL3885881, “DrugMatrix”.

Species on record: Rattus norvegicus
Assay: DrugMatrix - Regimen: Daily Repeat
Format: toxicity, organism-based, Sprague-Dawley
Parameters: regimen Daily Repeat, gender Male, age 6-8 weeks
Settings: in vivo, po, route oral GAVAGE; for BASOPHIL / EOSINOPHIL / ERYTHROCYTE COUNT / HEMATOCRIT / LEUKOCYTE COUNT / LYMPHOCYTE / MEAN CORPUSCULAR HEMOGLOBIN / MEAN CORPUSCULAR HEMOGLOBIN CONCENTRATION / MEAN CORPUSCULAR VOLUME / MONOCYTE / NEUTROPHIL / PLATELET COUNT: tissue Blood; for ALANINE AMINOTRANSFERASE / ALBUMIN / ALKALINE PHOSPHATASE / ASPARTATE AMINOTRANSFERASE / BLOOD UREA NITROGEN / CHLORIDE / CHOLESTEROL / CREATININE / GLUCOSE / PHOSPHORUS / POTASSIUM / TOTAL BILIRUBIN / TOTAL PROTEIN: tissue Plasma
[1] = 0 mg/kg, 72 h, dose level Control, time 3 day, vehicle .5 % CMC
[2] = 0 mg/kg, 120 h, dose level Control, time 5 day, vehicle .5 % CMC
[3] = 10 mg/kg, 72 h, dose level Low, time 3 day, vehicle .5 % CMC
[4] = 10 mg/kg, 120 h, dose level Low, time 5 day, vehicle .5 % CMC
[5] = 52 mg/kg, 72 h, dose level High, time 3 day, vehicle .5 % CMC
[6] = 52 mg/kg, 120 h, dose level High, time 5 day, vehicle .5 % CMC

SMILES: CNCCC(Oc1ccc(C(F)(F)F)cc1)c1ccccc1 (centres undefined) [FLUOXETINE]
- BASOPHIL [1]: 0%
- EOSINOPHIL [1]: 0%
- ERYTHROCYTE COUNT [1]: 6.34 x10E6/uL
- HEMATOCRIT [1]: 37.62%
- LEUKOCYTE COUNT [1]: 11.18 x10E3/uL
- LYMPHOCYTE [1]: 87.5%
- MEAN CORPUSCULAR HEMOGLOBIN [1]: 23.48 pg
- MEAN CORPUSCULAR HEMOGLOBIN CONCENTRATION [1]: 39.5 G/DL
- MEAN CORPUSCULAR VOLUME [1]: 59.45 fL
- MONOCYTE [1]: 1.67%
- NEUTROPHIL [1]: 10.83%
- PLATELET COUNT [1]: 1074.83 x10E3/uL
- ALANINE AMINOTRANSFERASE [1]: 36.5 u/L
- ALBUMIN [1]: 3.9 G/DL
- ALKALINE PHOSPHATASE [1]: 370.17 u/L
- ASPARTATE AMINOTRANSFERASE [1]: 63.17 u/L
- BLOOD UREA NITROGEN [1]: 16.83 mg/dL
- CHLORIDE [1]: 99.33 MEQ/L
- CHOLESTEROL [1]: 64.33 mg/dL
- CREATININE [1]: 0.55 mg/dL
- GLUCOSE [1]: 173.5 mg/dL
- PHOSPHORUS [1]: 10.08 mg/dL
- POTASSIUM [1]: 6.23 MEQ/L
- TOTAL BILIRUBIN [1]: 0.52 mg/dL
- TOTAL PROTEIN [1]: 6.35 G/DL
- BASOPHIL [2]: 0%
- EOSINOPHIL [2]: 0.17%
- ERYTHROCYTE COUNT [2]: 6.12 x10E6/uL
- HEMATOCRIT [2]: 37.08%
- LEUKOCYTE COUNT [2]: 11.87 x10E3/uL
- LYMPHOCYTE [2]: 83.33%
- MEAN CORPUSCULAR HEMOGLOBIN [2]: 24.25 pg
- MEAN CORPUSCULAR HEMOGLOBIN CONCENTRATION [2]: 39.97 G/DL
- MEAN CORPUSCULAR VOLUME [2]: 60.65 fL
- MONOCYTE [2]: 1.5%
- NEUTROPHIL [2]: 15%
- PLATELET COUNT [2]: 1042.83 x10E3/uL
- ALANINE AMINOTRANSFERASE [2]: 46 u/L
- ALBUMIN [2]: 3.82 G/DL
- ALKALINE PHOSPHATASE [2]: 369.5 u/L
- ASPARTATE AMINOTRANSFERASE [2]: 65 u/L
- BLOOD UREA NITROGEN [2]: 16.33 mg/dL
- CHLORIDE [2]: 100.67 MEQ/L
- CHOLESTEROL [2]: 57.17 mg/dL
- CREATININE [2]: 0.53 mg/dL
- GLUCOSE [2]: 163.33 mg/dL
- PHOSPHORUS [2]: 9.53 mg/dL
- POTASSIUM [2]: 6.27 MEQ/L
- TOTAL BILIRUBIN [2]: 0.55 mg/dL
- TOTAL PROTEIN [2]: 6.32 G/DL
- BASOPHIL [3]: 0%
- EOSINOPHIL [3]: 0%
- ERYTHROCYTE COUNT [3]: 6.11 x10E6/uL
- HEMATOCRIT [3]: 38.43%
- LEUKOCYTE COUNT [3]: 11.83 x10E3/uL
- LYMPHOCYTE [3]: 84.67%
- MEAN CORPUSCULAR HEMOGLOBIN [3]: 24.53 pg
- MEAN CORPUSCULAR HEMOGLOBIN CONCENTRATION [3]: 39 G/DL
- MEAN CORPUSCULAR VOLUME [3]: 62.8 fL
- MONOCYTE [3]: 1.67%
- NEUTROPHIL [3]: 13.67%
- PLATELET COUNT [3]: 1383.67 x10E3/uL
- ALANINE AMINOTRANSFERASE [3]: 32.67 u/L
- ALBUMIN [3]: 4 G/DL
- ALKALINE PHOSPHATASE [3]: 373.67 u/L
- ASPARTATE AMINOTRANSFERASE [3]: 53 u/L
- BLOOD UREA NITROGEN [3]: 15.67 mg/dL
- CHLORIDE [3]: 99.33 MEQ/L
- CHOLESTEROL [3]: 78 mg/dL
- CREATININE [3]: 0.5 mg/dL
- GLUCOSE [3]: 162 mg/dL
- PHOSPHORUS [3]: 11 mg/dL
- POTASSIUM [3]: 5.93 MEQ/L
- TOTAL BILIRUBIN [3]: 0.33 mg/dL
- TOTAL PROTEIN [3]: 6.6 G/DL
- BASOPHIL [4]: 0%
- EOSINOPHIL [4]: 0.33%
- ERYTHROCYTE COUNT [4]: 6.65 x10E6/uL
- HEMATOCRIT [4]: 39.33%
- LEUKOCYTE COUNT [4]: 11.3 x10E3/uL
- LYMPHOCYTE [4]: 91%
- MEAN CORPUSCULAR HEMOGLOBIN [4]: 23.1 pg
- MEAN CORPUSCULAR HEMOGLOBIN CONCENTRATION [4]: 39.1 G/DL
- MEAN CORPUSCULAR VOLUME [4]: 59.13 fL
- MONOCYTE [4]: 0.67%
- NEUTROPHIL [4]: 8%
- PLATELET COUNT [4]: 1162.33 x10E3/uL
- ALANINE AMINOTRANSFERASE [4]: 35 u/L
- ALBUMIN [4]: 3.83 G/DL
- ALKALINE PHOSPHATASE [4]: 381 u/L
- ASPARTATE AMINOTRANSFERASE [4]: 55 u/L
- BLOOD UREA NITROGEN [4]: 13.67 mg/dL
- CHLORIDE [4]: 97.67 MEQ/L
- CHOLESTEROL [4]: 67.67 mg/dL
- CREATININE [4]: 0.57 mg/dL
- GLUCOSE [4]: 169 mg/dL
- PHOSPHORUS [4]: 12.13 mg/dL
- POTASSIUM [4]: 6.2 MEQ/L
- TOTAL BILIRUBIN [4]: 0.43 mg/dL
- TOTAL PROTEIN [4]: 6.3 G/DL
- BASOPHIL [5]: 0%
- EOSINOPHIL [5]: 0.33%
- ERYTHROCYTE COUNT [5]: 6.76 x10E6/uL
- HEMATOCRIT [5]: 40.83%
- LYMPHOCYTE [5]: 90%
- MEAN CORPUSCULAR HEMOGLOBIN [5]: 24.27 pg
- MEAN CORPUSCULAR HEMOGLOBIN CONCENTRATION [5]: 40.07 G/DL
- MEAN CORPUSCULAR VOLUME [5]: 60.57 fL
- MONOCYTE [5]: 1%
- NEUTROPHIL [5]: 8.67%
- PLATELET COUNT [5]: 1353.67 x10E3/uL
- ALANINE AMINOTRANSFERASE [5]: 23.67 u/L
- ALBUMIN [5]: 3.93 G/DL
- ALKALINE PHOSPHATASE [5]: 317 u/L
- ASPARTATE AMINOTRANSFERASE [5]: 55.67 u/L
- BLOOD UREA NITROGEN [5]: 14.67 mg/dL
- CHLORIDE [5]: 97.67 MEQ/L
- CHOLESTEROL [5]: 88.33 mg/dL
- CREATININE [5]: 0.63 mg/dL
- GLUCOSE [5]: 135.67 mg/dL
- POTASSIUM [5]: 6.83 MEQ/L
- TOTAL BILIRUBIN [5]: 0.47 mg/dL
- BASOPHIL [6]: 0%
- EOSINOPHIL [6]: 0%
- ERYTHROCYTE COUNT [6]: 7.1 x10E6/uL
- HEMATOCRIT [6]: 41.93%
- LEUKOCYTE COUNT [6]: 12.47 x10E3/uL
- LYMPHOCYTE [6]: 88.67%
- MEAN CORPUSCULAR HEMOGLOBIN [6]: 23.53 pg
- MEAN CORPUSCULAR HEMOGLOBIN CONCENTRATION [6]: 39.7 G/DL
- MEAN CORPUSCULAR VOLUME [6]: 59.33 fL
- MONOCYTE [6]: 0.33%
- NEUTROPHIL [6]: 11%
- PLATELET COUNT [6]: 1164.33 x10E3/uL
- ALANINE AMINOTRANSFERASE [6]: 37 u/L
- ALBUMIN [6]: 3.8 G/DL
- ALKALINE PHOSPHATASE [6]: 263.33 u/L
- ASPARTATE AMINOTRANSFERASE [6]: 65.67 u/L
- BLOOD UREA NITROGEN [6]: 13.67 mg/dL
- CHLORIDE [6]: 98.33 MEQ/L
- CHOLESTEROL [6]: 79.67 mg/dL
- CREATININE [6]: 0.6 mg/dL
- GLUCOSE [6]: 142.33 mg/dL
- PHOSPHORUS [6]: 12.27 mg/dL
- POTASSIUM [6]: 6.23 MEQ/L
- TOTAL BILIRUBIN [6]: 0.4 mg/dL
- TOTAL PROTEIN [6]: 6.3 G/DL

SMILES: COc1ccc(CCN(C)CCCC(C#N)(c2ccc(OC)c(OC)c2)C(C)C)cc1OC (centres undefined)
- POTASSIUM (20 mg/kg, 72 h, dose level Low, time 3 day, vehicle 100 % WATER): 6.68 MEQ/L
- POTASSIUM (20 mg/kg, 120 h, dose level Low, time 5 day, vehicle 100 % WATER): 6.29 MEQ/L
